Eight compounds from ChEMBL document CHEMBL1201862, “PubChem BioAssay data set” (2004) can be followed below.

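Assay format: 96-well plates, 48-hour exposure. Here, GI50 denotes the concentration required for 50% inhibition of growth.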 Active and inactive are the calls of the source. Rule as the data show it: active = GI50 up to about 1.1 µM and inactive = higher. Bounds are passed on as bounds.

Some test systems named below: SR; NCI-H522; SN12C; OVCAR-8; OVCAR-5; BT-549; SNB-75; T47D; HT-29; ACHN; U-251; RPMI-8226; UACC-62; SK-MEL-2; NCI-H226; 786-0; MDA-N; PC-3; CAKI-1; MOLT-4.
Holding throughout (assay): NCI tumour cell line growth inhibition, 48 h

Regarding `CCOC(=O)c1sc2c(c1O)c(=O)n(-c1ccccc1)c(=S)n2-c1ccccc1`, the GI50 in the test on SR is 10.8 µM (inactive); in the test on NCI-H522 it was 46.6 µM (inactive); in the test with SN12C, 61.1 µM (inactive); in the test with OVCAR-8, 54.7 µM (inactive); in the test with OVCAR-5 it was > 100 µM (inactive); in the test on BT-549, 56.6 µM (inactive). The GI50 was 37.5 µM (inactive) in the test with SNB-75; > 100 µM (inactive) in the test with T47D; 80.5 µM (inactive) with HT-29; 81.1 µM (inactive) with ACHN; 76.6 µM (inactive) with U-251; 28.2 µM (inactive) in the test on RPMI-8226. Besides, the GI50 with UACC-62 is 84.3 µM (inactive); in the test with SK-MEL-2, > 100 µM (inactive); with NCI-H226, > 100 µM (inactive); in the test with 786-0, > 100 µM (inactive); with MDA-N, > 100 µM (inactive).

In the case of `COC1(OC)CC(CO)(COc2cc(Cl)nc(N)n2)C1`, the GI50 in the test on NCI-H522, with SN12C, with OVCAR-8, in the test with OVCAR-5, in the test with BT-549 and with SNB-75 was > 100 µM (inactive) in each case. Further, the GI50 in the test on PC-3, in the test on T47D, in the test with CAKI-1, in the test with HT-29, with ACHN and in the test on U-251 was > 100 µM (inactive) throughout. Also, the GI50 in the test with UACC-62, in the test on MOLT-4, in the test on SK-MEL-2, in the test on NCI-H226, with 786-0 and in the test with MDA-N was > 100 µM (inactive) in each case.

Consider `N=C(CC(=O)NOC(=O)c1ccccc1)NOC(=O)c1ccccc1`, for which the GI50 in the test on SN12C was 29.4 µM (inactive); in the test on OVCAR-8 it was 27.9 µM (inactive); in the test with OVCAR-5 it was 59.6 µM (inactive); in the test on BT-549 it was 25.2 µM (inactive); with PC-3, > 100 µM (inactive); in the test on T47D, > 100 µM (inactive). In addition, the GI50 with CAKI-1 was 36.9 µM (inactive); with HT-29 it was > 100 µM (inactive); in the test on ACHN it was 29.6 µM (inactive); in the test on U-251 it was 34.1 µM (inactive); with RPMI-8226 it was 74.6 µM (inactive); in the test on UACC-62 it was 25.9 µM (inactive). In addition, the GI50 in the test on MOLT-4 was 28.5 µM (inactive); in the test on NCI-H226, 12.8 µM (inactive); in the test with 786-0, > 100 µM (inactive); with MDA-N it was 33.6 µM (inactive).

In the case of `COc1cc([C@@H]2c3cc4c(cc3[C@@H](Nc3ccc(NC(=O)c5cc(NC(=O)c6cc([N+](=O)[O-])cn6C)cn5C)cc3)[C@H]3COC(=O)[C@H]23)OCO4)cc(OC)c1O`, the GI50 with SR is 0.0159 µM (active); in the test with NCI-H522, 0.261 µM (active); with SN12C, 3.73 µM (inactive); with OVCAR-8, 0.76 µM (active); in the test on OVCAR-5, > 61.4 µM (inactive); in the test on BT-549, > 100 µM (inactive). Besides, the GI50 was 4.89 µM (inactive) with SNB-75; 31.1 µM (inactive) with T47D; 0.323 µM (active) with CAKI-1; 0.355 µM (active) with HT-29; 0.2 µM (active) in the test with ACHN; 10.3 µM (inactive) with U-251. Moreover, the GI50 in the test on RPMI-8226 was 0.0324 µM (active); in the test on UACC-62 it was 0.453 µM (active); in the test with MOLT-4, < 0.0209 µM (active); in the test on SK-MEL-2, > 100 µM (inactive); in the test with NCI-H226, 0.334 µM (active); in the test on 786-0, 0.593 µM (active). Moreover, in the test on MDA-N, the GI50 is 0.0308 µM (active).

As for `CC(C)(C)c1cc(/C=C2/NC(=O)NC2=O)cc(C(C)(C)C)c1O`, the GI50 in the test with SR was 12.8 µM (inactive); in the test on NCI-H522, 12 µM (inactive); in the test with SN12C, 15.2 µM (inactive); in the test with OVCAR-8, 16.3 µM (inactive); with OVCAR-5 it was 15.9 µM (inactive); in the test on BT-549, 13.7 µM (inactive). Besides, the GI50 with SNB-75 was 12.3 µM (inactive); in the test on PC-3, 7.46 µM (inactive); with T47D it was 2.91 µM (inactive); in the test on CAKI-1 it was 16.8 µM (inactive); with HT-29, 11.7 µM (inactive); in the test on ACHN it was 11.8 µM (inactive). Besides, the GI50 in the test with U-251 was 12.8 µM (inactive); with RPMI-8226, 11.4 µM (inactive); in the test on UACC-62, 16.5 µM (inactive); with MOLT-4, 17.1 µM (inactive); with SK-MEL-2, 13.8 µM (inactive); with NCI-H226 it was 14.8 µM (inactive). Besides, in the test with 786-0, the GI50 was 15.6 µM (inactive).

Take `CC(=O)c1[nH]c(Nc2ccc(C)cc2)c(C(=S)Nc2ccccc2)c1N`: the GI50 was 22.3 µM (inactive) in the test with SR; 15.6 µM (inactive) in the test with NCI-H522; 18.8 µM (inactive) with SN12C; 18.1 µM (inactive) in the test on OVCAR-8; 32.9 µM (inactive) in the test with OVCAR-5; 15.6 µM (inactive) with BT-549. Besides, the GI50 is 19.9 µM (inactive) in the test with SNB-75; 12.8 µM (inactive) in the test with T47D; 16.9 µM (inactive) with CAKI-1; 25.8 µM (inactive) with HT-29; 18.8 µM (inactive) in the test on ACHN; 14.4 µM (inactive) in the test on U-251. Further, the GI50 in the test on UACC-62 is 16.2 µM (inactive); in the test on MOLT-4, 30.1 µM (inactive); with SK-MEL-2, 15.5 µM (inactive); with NCI-H226, 14.4 µM (inactive); with 786-0, 17.7 µM (inactive); in the test with MDA-N, 16 µM (inactive).

For the compound `CN1CCN(C(=O)CCC(=O)Nc2cc3c(c4ccccc24)-c2ccc4ccccc4c2C3)CC1`, the GI50 was 1.79 µM (inactive) in the test on SR; 1.63 µM (inactive) in the test on NCI-H522; 1.79 µM (inactive) with SN12C; 2.18 µM (inactive) in the test on OVCAR-8; 1.67 µM (inactive) in the test on OVCAR-5; 1.35 µM (inactive) in the test on BT-549. For the same compound, the GI50 is 1.64 µM (inactive) in the test with PC-3; 1.7 µM (inactive) in the test with T47D; 1.53 µM (inactive) in the test with CAKI-1; 1.72 µM (inactive) in the test on HT-29; 2.12 µM (inactive) in the test on ACHN; 2.04 µM (inactive) in the test on U-251. The GI50 is 1.96 µM (inactive) with RPMI-8226; 1.7 µM (inactive) in the test with UACC-62; 1.77 µM (inactive) in the test on MOLT-4; 1.97 µM (inactive) in the test with SK-MEL-2; 1.76 µM (inactive) with NCI-H226; 1.69 µM (inactive) in the test on 786-0.

Take `CCOC(=O)c1ccc(Nc2nc3ccccc3nc2C(=O)OCC)cc1`: the GI50 with SR, with NCI-H522, in the test with SN12C, with OVCAR-8, in the test on OVCAR-5 and in the test with BT-549 was > 100 µM (inactive) each time. For the same compound, the GI50 in the test with SNB-75 was 24.7 µM (inactive); in the test on T47D it was > 100 µM (inactive); in the test on CAKI-1 it was > 100 µM (inactive); in the test with HT-29, > 100 µM (inactive); in the test on ACHN, > 100 µM (inactive); in the test with U-251, > 100 µM (inactive). Moreover, the GI50 in the test on RPMI-8226 is 85.9 µM (inactive); in the test on UACC-62, > 100 µM (inactive); with MOLT-4, > 100 µM (inactive); in the test with SK-MEL-2, > 100 µM (inactive); in the test with 786-0, 57.7 µM (inactive); in the test on MDA-N it was > 100 µM (inactive).
